According to ChEMBL document CHEMBL6121000, “Corosolic acid and its derivatives targeting MCCC1 against insulin resistance and their hypoglycemic effect on type 2 diabetic mice” (Eur J Med Chem, 2025):
Converted amounts (≈) assume the structure as drawn. The source made the active and inactive calls. No cut-off for these calls is given here.

Key:
[1] = Cytotoxicity against human HepG2 cells assessed as cell viability at 80 uM incubated for 24 hrs by CCK8 assay relative to control; assay type: toxicity, cell-based; settings: HepG2 cells, read-out: Activity
HepG2 [2] = assay: Inhibition of insulin resistance in human HepG2 cells assessed as decrease in GlcN-induced glucose production at 20 uM preincubated for 1 hr followed by GlcN treatment for 18 hrs and subsequent insulin stimulation for 20 mins; assay type: functional, cell-based; settings: time 19.33 hrs
HepG2 [3] = assay: Lipid lowering activity in human HepG2 cells assessed as inhibition of FFA-induced triglyceride content at 20 uM preincubated for 1 hr followed by FFA treatment for 24 hrs relative to control; assay type: functional
HepG2 [4] = assay: Induction of glucose uptake in human HepG2 cells assessed as increase in GlcN-reduced AKT phosphorylation at 2.5 to 20 uM preincubated for 1 hr followed by GlcN addition measured after 24 hrs by Western blot analysis; assay type: functional, cell-based; settings: dose 2.5-20 µM, time 25.0 hrs
HepG2 [5] = assay: Induction of glucose uptake in human HepG2 cells assessed as increase in GlcN-reduced GSK-3beta phosphorylation at 2.5 to 20 uM preincubated for 1 hr followed by GlcN addition measured after 24 hrs by Western blot analysis; assay type: functional, cell-based; settings: dose 2.5-20 µM, time 25.0 hrs
HepG2 [6] = assay: Induction of glucose uptake in human HepG2 cells assessed as increase in GlcN-reduced GLUT4 level at 2.5 to 20 uM preincubated for 1 hr followed by GlcN addition measured after 24 hrs by Western blot analysis; assay type: functional, cell-based; settings: dose 2.5-20 µM, time 25.0 hrs
HepG2 [7] = assay: Inhibition of insulin resistance-associated inflammation in human HepG2 cells assessed as increase in GlcN-reduced I-kaapaB-alpha level at 2.5 to 20 uM preincubated for 1 hr followed by GlcN addition measured after 24 hrs by Western blot analysis; assay type: functional, cell-based; settings: dose 2.5-20 µM
HEK293 = assay: Cytotoxicity against HEK293 cells assessed as cell viability at 40 to 320 uM incubated for 24 hrs by CCK8 assay relative to control; assay type: toxicity, cell-based; settings: human, hek293, 24 h, dose 40-320 µM
[8] = Toxicity in Sprague-Dawley rat assessed as damage in heart at 20 mg/kg, po for 5 days; assay type: organism-based; settings: in vivo, 120 h, time 5 day
[9] = Toxicity in Sprague-Dawley rat assessed as damage in liver at 20 mg/kg, po for 5 days; assay type: organism-based; settings: in vivo, 120 h, time 5 day
[10] = Toxicity in Sprague-Dawley rat assessed as damage in lungs at 20 mg/kg, po for 5 days; assay type: organism-based; settings: in vivo, 120 h, time 5 day
[11] = Toxicity in Sprague-Dawley rat assessed as damage in colon at 20 mg/kg, po for 5 days; assay type: organism-based; settings: in vivo, 120 h, time 5 day
[12] = Toxicity in Sprague-Dawley rat assessed as damage in spleen at 20 mg/kg, po for 5 days; assay type: organism-based; settings: in vivo, 120 h, time 5 day
[13] = Toxicity in Sprague-Dawley rat assessed as inflammatory cell infiltration in colon tissue at 20 mg/kg, po for 5 days; assay type: organism-based; settings: in vivo, 120 h, time 5 day
[14] = Toxicity in Sprague-Dawley rat assessed as reduction in number of crypts in colon tissue at 20 mg/kg, po for 5 days; assay type: organism-based; settings: in vivo, 120 h, time 5 day
[15] = Solubility of compound in PBS; assay type: physicochemical
HepG2 [16] = assay: Lipid lowering activity in human HepG2 cells assessed as reduction in FFA-induced triglyceride content at 20 uM preincubated for 1 hr followed by FFA treatment for 24 hrs; assay type: functional, cell-based; settings: time 25.0 hrs
[17] = molecular target: T1, Methylcrotonoyl-CoA carboxylase subunit alpha, mitochondrial (Homo sapiens) (UniProt Q96RQ3); assay: Binding affinity to MCCC1 in human HepG2 cells assessed as reduction in pronase-mediated MCCC1 degradation at 40 to 80 uM preincubated for 1 hr followed by pronase addition measured after 10 mins by DARTS assay; assay type: cell-based; settings: dose 40-80 µM, time 70.0 min
T1 sequence (whole entry): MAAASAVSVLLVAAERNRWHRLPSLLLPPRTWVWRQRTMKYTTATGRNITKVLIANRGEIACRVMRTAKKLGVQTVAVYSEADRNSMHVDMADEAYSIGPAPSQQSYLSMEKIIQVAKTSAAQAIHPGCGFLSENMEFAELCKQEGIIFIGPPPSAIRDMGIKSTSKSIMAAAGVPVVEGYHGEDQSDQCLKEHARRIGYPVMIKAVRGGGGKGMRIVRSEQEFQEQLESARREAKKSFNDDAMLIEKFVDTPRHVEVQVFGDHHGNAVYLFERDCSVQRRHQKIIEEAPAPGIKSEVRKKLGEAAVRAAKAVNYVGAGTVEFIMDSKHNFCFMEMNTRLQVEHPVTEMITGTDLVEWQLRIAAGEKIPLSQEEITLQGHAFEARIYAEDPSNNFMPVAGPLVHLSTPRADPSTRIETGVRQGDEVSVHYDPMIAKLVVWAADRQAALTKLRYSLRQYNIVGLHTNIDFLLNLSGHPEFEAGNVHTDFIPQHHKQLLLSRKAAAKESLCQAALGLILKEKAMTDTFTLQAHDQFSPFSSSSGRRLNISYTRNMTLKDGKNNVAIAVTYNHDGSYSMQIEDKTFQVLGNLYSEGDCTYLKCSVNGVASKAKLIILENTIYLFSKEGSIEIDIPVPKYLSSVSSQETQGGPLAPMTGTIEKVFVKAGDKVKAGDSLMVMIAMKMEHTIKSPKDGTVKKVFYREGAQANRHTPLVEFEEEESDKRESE

[18] = molecular target: T1, Methylcrotonoyl-CoA carboxylase subunit alpha, mitochondrial (Homo sapiens); assay: Binding affinity to MCCC1 in human HepG2 cells assessed as thermal stability at 40 uM incubated for 1 hr followed by heat exposure for 3 mins by CETSA; assay type: cell-based
HepG2 [19] = assay: Inhibition of insulin resistance in human HepG2 cells assessed as restoration of GlcN-reduced MCCC1 level at 40 uM preincubated for 1 hr followed by GlcN treatment for 18 hrs by Western blot analysis; assay type: functional, cell-based; settings: time 19.0 hrs
HepG2 [20] = assay: Inhibition of insulin resistance in human HepG2 cells assessed as restoration of GlcN-reduced MCCC1 level at 40 uM preincubated for 1 hr followed by GlcN treatment for 18 hrs in presence of VPA by Western blot analysis; assay type: functional, cell-based; settings: time 19.0 hrs
HepG2 [21] = assay: Inhibition of insulin resistance in human HepG2 cells assessed as decrease in GlcN-induced glucose production at 40 uM preincubated for 1 hr followed by GlcN treatment for 18 hrs and subsequent insulin stimulation for 20 mins in presence of VPA by glucose oxidase-peroxidase assay; assay type: functional, cell-based; settings: time 19.33 hrs
HepG2 [22] = assay: Induction of glucose uptake in human HepG2 cells assessed as increase in GlcN-reduced AKT phosphorylation at 40 uM preincubated for 1 hr followed by GlcN addition measured after 18 hrs in presence of VPA by Western blot analysis; assay type: functional, cell-based; settings: time 19.0 hrs
Mus musculus [23] = assay: Hypoglycemic activity in HFD-fed STZ-induced diabetic C57BL/6J mouse model assessed as decrease in blood glucose level at 10 to 20 mg/kg, po administered everyday for 3 weeks; assay type: functional, organism-based; settings: dose 10-20 mg/kg
Mus musculus [24] = assay: Hypoglycemic activity in HFD-fed STZ-induced diabetic C57BL/6J mouse model assessed as improvement in weight loss at 10 to 20 mg/kg, po administered everyday for 3 weeks; assay type: functional, organism-based; settings: dose 10-20 mg/kg
Mus musculus [25] = assay: Hypoglycemic activity in 12 hr-fasted STZ-induced diabetic C57BL/6J mouse model assessed as decrease in blood glucose level at 20 mg/kg, po measured for 30 to 90 mins by insulin tolerance test; assay type: functional, organism-based; settings: time 30-90 min
Mus musculus [26] = assay: Hypoglycemic activity in 12 hr-fasted STZ-induced diabetic C57BL/6J mouse model assessed as decrease in AUC of blood glucose level at 20 mg/kg, po measured upto 120 mins by insulin tolerance test relative to control; assay type: functional; design: scale not given: the % may be the effect or the level left; settings: 2 h
Mus musculus [27] = assay: Hypoglycemic activity in HFD-fed STZ-induced diabetic C57BL/6J mouse model assessed as increase in hepatic glycogen synthesis at 10 to 20 mg/kg, po administered everyday for 3 weeks; assay type: functional, organism-based; settings: dose 10-20 mg/kg
Mus musculus [28] = assay: Hypoglycemic activity in HFD-fed STZ-induced diabetic C57BL/6J mouse model assessed as reduction in glucose production at 10 to 20 mg/kg, po administered everyday for 3 weeks; assay type: functional, organism-based; settings: dose 10-20 mg/kg
Mus musculus [29] = assay: Hypoglycemic activity in HFD-fed STZ-induced diabetic C57BL/6J mouse model assessed as improvement in total cholesterol level in liver at 10 to 20 mg/kg, po administered everyday for 3 weeks; assay type: functional, organism-based; settings: dose 10-20 mg/kg
Mus musculus [30] = assay: Hypoglycemic activity in HFD-fed STZ-induced diabetic C57BL/6J mouse model assessed as improvement in triglyceride level in liver at 10 to 20 mg/kg, po administered everyday for 3 weeks; assay type: functional, organism-based; settings: dose 10-20 mg/kg
Mus musculus [31] = assay: Hypoglycemic activity in HFD-fed STZ-induced diabetic C57BL/6J mouse model assessed as reversal of diabetes-reduced MCCC1 level in liver at 10 to 20 mg/kg, po administered everyday for 3 weeks by Western blot analysis; assay type: functional, organism-based; settings: dose 10-20 mg/kg
Mus musculus [32] = assay: Hypoglycemic activity in HFD-fed STZ-induced diabetic C57BL/6J mouse model assessed as increase in AKT phosphorylation in liver at 10 to 20 mg/kg, po administered everyday for 3 weeks by Western blot analysis; assay type: functional, organism-based; settings: dose 10-20 mg/kg
Mus musculus [33] = assay: Hypoglycemic activity in HFD-fed STZ-induced diabetic C57BL/6J mouse model assessed as increase in GLUT4 level in liver at 10 to 20 mg/kg, po administered everyday for 3 weeks by Western blot analysis; assay type: functional, organism-based; settings: dose 10-20 mg/kg

Structure (SMILES): C[C@H]1[C@H](C)CC[C@]2(C(=O)NCC(=O)O)CC[C@]3(C)C(=CC[C@@H]4[C@@]5(C)C[C@@H](O)[C@H](O)C(C)(C)[C@@H]5CC[C@]43C)[C@H]12
- viability at 24 h, 80 µM [1]: > 80%
- inhibition (HepG2 [2]): Active
- inhibition at 20 µM (HepG2 [3]): 59.5%
- Activity (HepG2 [4]): Active
- Activity (HepG2 [5]): Active
- Activity (HepG2 [6]): Active
- inhibition (HepG2 [7]): Active
- Activity (HEK293): Non-toxic
- Activity [8]: Non-toxic
- Activity [9]: Non-toxic
- Activity [10]: Non-toxic
- Activity [11]: Non-toxic
- Activity [12]: Non-toxic
- Activity [13]: Non-toxic
- Activity [14]: Non-toxic
- solubility [15]: 3.98 mM (≈ 2110 µg/mL)
- Activity (HepG2 [16]): Active
- Activity [17]: Active
- Activity [18]: Active
- inhibition (HepG2 [19]): Active
- inhibition (HepG2 [20]): inactive
- inhibition (HepG2 [21]): inactive
- Activity (HepG2 [22]): inactive
- Activity (Mus musculus [23]): Active; Activity Similar To Metformin At 200 Mg/Kg
- Activity (Mus musculus [24]): Active
- Activity (Mus musculus [25]): Active
- Activity (Mus musculus [26]): 19.4%
- Activity (Mus musculus [27]): Active
- Activity (Mus musculus [28]): Active
- Activity (Mus musculus [29]): Active
- Activity (Mus musculus [30]): Active
- Activity (Mus musculus [31]): Active
- Activity (Mus musculus [32]): Active
- Activity (Mus musculus [33]): Active
